Test results: patent US20140323418A1, “SELECTIVE KINASE INHIBITORS” (PORTOLA PHARMACEUTICALS, INC., priority 2011, published 2014)

target: T1, full length active recombinant SYK enzyme (Homo sapiens, UniProt P43405); assay: Inhibition of Syk tyrosine phosphorylation activity (LANCE TR-FRET kinase assay); type: biochemical; settings: 1 nM SYK, 550 nM substrate, 100 μM ATP, 1 hour room temperature
T1 construct: full length active recombinant SYK enzyme (Millipore, Calif.); purchased Millipore

IC50	SMILES
10 to 100 nM	Cc1cccc(Nc2nc(NC3(CN)CC3)ncc2C(N)=O)c1 [Example 117, 4-(m-toluidino)-2-(1-(aminomethyl)cyclopropylamino)pyrimidine-5-carboxamide]
< 1 nM	CC[C@@H](Nc1ncc(C(N)=O)c(Nc2cccc(C)c2)n1)C1(N)CC1 [Example 126, (R)-2-(1-(1-aminocyclopropyl)propylamino)-4-(m-tolylamino)pyrimidine-5-carboxamide]
100 to 1000 nM	CC[C@H](Nc1ncc(C(N)=O)c(Nc2cccc(C)c2)n1)C1(N)CC1 [Example 128, (S)-2-(1-(1-aminocyclopropyl)propylamino)-4-(m-tolylamino)pyrimidine-5-carboxamide]
1 to 10 nM	CC[C@@H](Nc1ncc(C(N)=O)c(Nc2ccc(C)cc2)n1)C1(N)CC1 [Example 130, (R)-2-(1-(1-aminocyclopropyl)propylamino)-4-(p-tolylamino)pyrimidine-5-carboxamide]
1 to 10 nM	CC[C@@H](Nc1ncc(C(N)=O)c(Nc2cccc(-c3ncccn3)c2)n1)C1(N)CC1 [Example 131, (R)-2-(1-(1-aminocyclopropyl)propylamino)-4-(3-(pyrimidin-2-yl)phenylamino)pyrimidine-5-carboxamide]
1 to 10 nM	CC[C@@H](Nc1ncc(C(N)=O)c(Nc2cccc(-n3cccn3)c2)n1)C1(N)CC1 [Example 132, (R)-4-(3-(1H-pyrazol-1-yl)phenylamino)-2-(1-(1-aminocyclopropyl)propylamino)pyrimidine-5-carboxamide]
100 to 1000 nM	NC(=O)c1cnc(N[C@@H](C2CC2)C2(N)CC2)nc1Nc1cccc(-c2ncccn2)c1 [Example 134, (S)-2-(1-(1-aminocyclopropyl)(cyclopropyl)methylamino)-4-(3-(pyrimidin-2-yl)phenylamino)pyrimidine-5-carboxamide]
1 to 10 nM	NC(=O)c1cnc(N[C@H](C2CC2)C2(N)CC2)nc1Nc1cccc(-c2ncccn2)c1 [Example 135, (R)-2-(1-(1-aminocyclopropyl)(cyclopropyl)methylamino)-4-(3-(pyrimidin-2-yl)phenylamino)pyrimidine-5-carboxamide]
1 to 10 nM	CC(C)[C@@H](Nc1ncc(C(N)=O)c(Nc2cccc(-c3ncccn3)c2)n1)C1(N)CC1 [Example 136, (R)-2-(1-(1-aminocyclopropyl)-2-methylpropylamino)-4-(3-(pyrimidin-2-yl)phenylamino)pyrimidine-5-carboxamide]
1 to 10 nM	CC(C)C[C@@H](Nc1ncc(C(N)=O)c(Nc2cccc(-n3cccn3)c2)n1)C1(N)CC1 [Example 139, (R)-4-(3-(1H-pyrazol-1-yl)phenylamino)-2-(1-(1-aminocyclopropyl)-3-methylbutylamino)pyrimidine-5-carboxamide]
1 to 10 nM	CC(C)[C@@H](Nc1ncc(C(N)=O)c(Nc2cccc(-n3cccn3)c2)n1)C1(N)CC1 [Example 140, (R)-4-(3-(1H-pyrazol-1-yl)phenylamino)-2-(1-(1-aminocyclopropyl)-2-methylpropylamino)pyrimidine-5-carboxamide]
1 to 10 nM	C[C@@H](Nc1ncc(C(N)=O)c(Nc2cccc(-c3ncccn3)c2)n1)C1(N)CC1 [Example 141, (R)-2-(1-(1-aminocyclopropyl)ethylamino)-4-(3-(pyrimidin-2-yl)phenylamino)pyrimidine-5-carboxamide]
1 to 10 nM	C[C@@H](Nc1ncc(C(N)=O)c(Nc2cccc(-n3cccn3)c2)n1)C1(N)CC1 [Example 143, (R)-4-(3-(1H-pyrazol-1-yl)phenylamino)-2-(1-(1-aminocyclopropyl)ethylamino)pyrimidine-5-carboxamide]
1 to 10 nM	Cc1cccc(Nc2nc(N[C@H](C(C)C)C3(N)CC3)ncc2C(N)=O)c1 [Example 144, (R)-2-(1-(1-aminocyclopropyl)-2-methylpropylamino)-4-(m-tolylamino)pyrimidine-5-carboxamide]
1 to 10 nM	Cc1cccc(Nc2nc(N[C@H](C)C3(N)CC3)ncc2C(N)=O)c1 [Example 145, (R)-2-(1-(1-aminocyclopropyl)ethylamino)-4-(m-tolylamino)pyrimidine-5-carboxamide]
10 to 100 nM	Cc1ccc(Nc2nc(N[C@H](C)C3(N)CC3)ncc2C(N)=O)cc1 [Example 146, (R)-2-(1-(1-aminocyclopropyl)ethylamino)-4-(p-tolylamino)pyrimidine-5-carboxamide]
10 to 100 nM	Cc1cccc(Nc2nc(N[C@H](c3ccccc3)C3(N)CC3)ncc2C(N)=O)c1 [Example 147, (R)-2-(1-(1-aminocyclopropyl)(phenyl)methylamino)-4-(m-tolylamino)pyrimidine-5-carboxamide]
100 to 1000 nM	Cc1cccc(Nc2nc(N[C@@H](c3ccccc3)C3(N)CC3)ncc2C(N)=O)c1 [Example 148, (5)-2-(1-(1-aminocyclopropyl)(phenyl)methylamino)-4-(m-tolylamino)pyrimidine-5-carboxamide]
10 to 100 nM	NC(=O)c1cnc(N[C@H](c2ccccc2)C2(N)CC2)nc1Nc1cccc(-n2nccn2)c1 [Example 149, (R)-4-(3-(2H-1,2,3-triazol-2-yl)phenylamino)-2-(1-(1-aminocyclopropyl)(phenyl)methylamino)pyrimidine-5-carboxamide]
10 to 100 nM	NC(=O)c1cnc(N[C@H](c2ccccc2)C2(N)CC2)nc1Nc1cccc(-c2ncccn2)c1 [Example 150, (R)-2-(1-(1-aminocyclopropyl)(phenyl)methylamino)-4-(3-(pyrimidin-2-yl)phenylamino)pyrimidine-5-carboxamide]

More lines, now with the values behind:

SMILES	IC50
Cn1cc(C#N)c2c(Nc3nc(N[C@@H]4CCCC[C@@H]4N)ncc3C(N)=O)cccc21 [Example 103, 2-((1R,2S)-2-aminocyclohexylamino)-4-(3-cyano-1-methyl-1H-indol-4-ylamino)pyrimidine-5-carboxamide]	100 to 1000 nM
Cn1ccc2c(Nc3nc(NCC(N)C(C)(F)F)ncc3C(N)=O)cccc21 (centres unmarked) [Example 104, 2-(2-amino-3,3-difluorobutylamino)-4-(1-methyl-1H-indol-4-ylamino)pyrimidine-5-carboxamide]	10 to 100 nM
Cc1cccc(Nc2nc(NCC(N)C(C)(F)F)ncc2C(N)=O)c1 (centres unmarked) [Example 105, 4-(m-toluidino)-2-(2-amino-3,3-difluorobutylamino)pyrimidine-5-carboxamide]	100 to 1000 nM
NC(=O)c1cnc(NCC2(N)CC2)nc1Nc1cccc(-n2cccn2)c1 [Example 106, 4-(3-(1H-pyrazol-1-yl)phenylamino)-2-((1-aminocyclopropyl)methylamino)pyrimidine-5-carboxamide]	10 to 100 nM
Cn1ccc2c(Nc3nc(N[C@@H]4CCCC[C@@H]4O)ncc3C(N)=O)cccc21 [Example 107, 2-((1R,2S)-2-hydroxycyclohexylamino)-4-(1-methyl-1H-indol-4-ylamino)pyrimidine-5-carboxamide]	100 to 1000 nM
Cn1ccc2c(Nc3nc(NC4CCCCC4)ncc3C(N)=O)cccc21 [Example 108, 2-(cyclohexylamino)-4-(1-methyl-1H-indol-4-ylamino)pyrimidine-5-carboxamide]	100 to 1000 nM
Cn1ccc2c(Nc3nc(NC4(C#N)CC4)ncc3C(N)=O)cccc21 [Example 109, 2-(1-cyanocyclopropylamino)-4-(1-methyl-1H-indol-4-ylamino)pyrimidine-5-carboxamide]	100 to 1000 nM
C[C@@H](Nc1ncc(C(N)=O)c(Nc2cccc3c2ccn3C)n1)C1CC1 [Example 110, (R)-2-(1-cyclopropylethylamino)-4-(1-methyl-1H-indol-4-ylamino)pyrimidine-5-carboxamide]	100 to 1000 nM
Cn1ccc2c(Nc3nc(NCC4CCCC4)ncc3C(N)=O)cccc21 [Example 111, 2-(cyclopentylmethylamino)-4-(1-methyl-1H-indol-4-ylamino)pyrimidine-5-carboxamide]	100 to 1000 nM
Cn1ccc2c(Nc3nc(NCC4CC4)ncc3C(N)=O)cccc21 [Example 112, 2-(cyclopropylmethylamino)-4-(1-methyl-1H-indol-4-ylamino)pyrimidine-5-carboxamide]	100 to 1000 nM
CCn1ccc2c(Nc3nc(Nc4ccc5c(c4)CC(=O)N5)ncc3C(N)=O)cccc21 [Example 113, 4-(1-ethyl-1H-indol-4-ylamino)-2-(2-oxoindolin-5-ylamino)pyrimidine-5-carboxamide]	10 to 100 nM
CCn1ccc2c(Nc3nc(NC4CC4)ncc3C(N)=O)cccc21 [Example 114, 2-(cyclopropylamino)-4-(1-ethyl-1H-indol-4-ylamino)pyrimidine-5-carboxamide]	100 to 1000 nM
CCn1ccc2c(Nc3nc(NC(C)C)ncc3C(N)=O)cccc21 [Example 115, 4-(1-ethyl-1H-indol-4-ylamino)-2-(isopropylamino)pyrimidine-5-carboxamide]	100 to 1000 nM
CCn1ccc2c(Nc3nc(NCC(C)C)ncc3C(N)=O)cccc21 [Example 116, 4-(1-ethyl-1H-indol-4-ylamino)-2-(isobutylamino)pyrimidine-5-carboxamide]	100 to 1000 nM
Cc1cccc(Nc2nc(N[C@H]3CC[C@@H](N)C3)ncc2C(N)=O)c1 [Example 118, 4-(m-toluidino)-2-((1S,3R)-3-aminocyclopentylamino)pyrimidine-5-carboxamide]	100 to 1000 nM
Cc1cccc(Nc2nc(N[C@@H]3CC[C@H](N)C3)ncc2C(N)=O)c1 [Example 119, 4-(m-toluidino)-2-((1R,3S)-3-aminocyclopentylamino)pyrimidine-5-carboxamide]	100 to 1000 nM
CC[C@@H](Nc1ncc(C(N)=O)c(Nc2cccc(C3=NCCCN3)c2)n1)C1(N)CC1 [Example 133, (R)-2-(1-(1-aminocyclopropyl)propylamino)-4-(3-(1,4,5,6-tetrahydropyrimidin-2-yl)phenylamino)pyrimidine-5-carboxamide]	100 to 1000 nM
CC(C)[C@@H](Nc1ncc(C(N)=O)c(Nc2cccc(-n3nccn3)c2)n1)C1(N)CC1 [Example 138, (R)-4-(3-(2H-1,2,3-triazol-2-yl)phenylamino)-2-(1-(1-aminocyclopropyl)-2-methylpropylamino)pyrimidine-5-carboxamide]	1 to 10 nM
